Measured values published in patent US20240018133A1, “MODULATORS OF THE INTEGRATED STRESS PATHWAY” (Calico Life Sciences LLC, priority 2019, published 2024).

Tested on: ATF4 luciferase reporter (human full-length ATF4 5'-UTR fused to firefly luciferase) in HEK293T cells
Assay: ATF4-Luc assay (in vitro model of VWMD): HEK293T cells carrying ATF4 luciferase reporter, tunicamycin-treated
Assay type: cell-based
Conditions: Homo sapiens, HEK-293T, 1 μg/mL tunicamycin, 7 hours, One Glo luminescence
Method: In order to test exemplary compounds of the invention in a cellular context, a stable VWMD cell line was first constructed. The ATF4 reporter was prepared by fusing the human full-length ATF4 5′-UTR (NCBI Accession No. BC022088.2) in front of the firefly luciferase (FLuc) coding sequence lacking the initiator methionine as described in Sidrauski et al (eLife 2013). The construct was used to produce recombinant retroviruses using standard methods and the resulting viral supernatant was used to transduce HEK293T cells, which were then subsequently selected with puromycin to generate a stable cell line.
HEK293T cells carrying the ATF4 luciferase reporter were plated on polylysine coated 384-well plates (Greiner Bio-one) at 30,000 cells per well. Cells were treated the next day with 1 μg/mL tunicamycin and 200 nM of a compound of Formula (I) for 7 hours. Luminescence was measured using One Glo (Promega) as specified by the manufacturer. Cells were maintained in DMEM with L-glutamine supplemented with 10% heat-inactivated FBS (Gibco) and Antibiotic-Antimycotic solution (Gibco).
Table 2 below summarizes the EC50 data obtained using the ATF4-Luc assay for exemplary compounds of the invention.

Structure (SMILES)	EC50 [nM]
O=C(NC12CCC(NC(=O)[C@H]3C[C@@H](O)c4cc(Cl)ccc4O3)(CC1)[C@@H](O)C2)c1cc(C(F)F)no1 (single isomer, unassigned) [Compound 215]	10 to 50
O=C(NC12CCC(NC(=O)[C@@H]3C[C@H](O)c4cc(Cl)ccc4O3)(CC1)[C@@H](O)C2)c1cc(C(F)F)no1 (single isomer, unassigned) [Compound 216]	250 to 500
C[C@]1(O)C[C@@H](C(=O)NC23CC(NC(=O)COc4ccc(Cl)c(F)c4)(C2)C3)Oc2ccc(Cl)cc21 (single isomer, unassigned) [Compound 237]	< 10
O=C(COc1ccc(Cl)c(F)c1)NC12CCC(NC(=O)[C@H]3C[C@@H](O)c4cc(Cl)ccc4O3)(CC1)[C@@H](O)C2 (single isomer, unassigned) [Compound 238]	< 10
O=C(COc1ccc(Cl)c(F)c1)NC12CCC(NC(=O)[C@@H]3C[C@H](O)c4cc(Cl)ccc4O3)(CC1)[C@@H](O)C2 (single isomer, unassigned) [Compound 239]	< 10
Cc1cc2c(cc1F)[C@H](O)C[C@H](C(=O)NC13CC(NC(=O)COc4ccc(Cl)c(F)c4)(C1)C3)O2 (single isomer, unassigned) [Compound 241]	< 10
O=C(COc1ccc(Cl)c(F)c1)NC12CC(NC(=O)[C@@H]3C[C@H](O)c4cc(Cl)c(F)cc4O3)(C1)C2 (single isomer, unassigned) [Compound 265]	< 10
C[C@@]1(O)C[C@H](C(=O)NC23CC(NC(=O)COc4ccc(Cl)c(F)c4)(C2)C3)Oc2ccc(Cl)cc21 (single isomer, unassigned) [Compound 280]	10 to 50
C[C@]1(O)C[C@H](C(=O)NC23CC(NC(=O)COc4ccc(Cl)c(F)c4)(C2)C3)Oc2ccc(Cl)cc21 (single isomer, unassigned) [Compound 281]	< 10
C[C@@]1(O)C[C@@H](C(=O)NC23CC(NC(=O)COc4ccc(Cl)c(F)c4)(C2)C3)Oc2ccc(Cl)cc21 (single isomer, unassigned) [Compound 288]	< 10
CN1CC(C(=O)NC23CCC(NC(=O)COc4ccc(Cl)c(F)c4)(CC2)[C@@H](O)C3)Oc2ccc(Cl)cc21 (stereo partly drawn) [Compound 107, 6-chloro-N-{(3S)-4-[2-(4-chloro-3-fluorophenoxy)acetamido]-3-hydroxybicyclo[2.2.2]octan-1-yl}-4-methyl-3,4-dihydro-2H-1,4-benzoxazine-2-carboxamide]	< 10
CN1CC(C(=O)NC23CC(NC(=O)COc4ccc(Cl)c(F)c4)(C2)C3)Oc2ccc(Cl)cc21 (stereo not drawn) [Compound 112, 6-chloro-N-{3-[2-(4-chloro-3-fluorophenoxy)acetamido]bicyclo[1.1.1]pentan-1-yl}-4-methyl-3,4-dihydro-2H-1,4-benzoxazine-2-carboxamide]	< 10
O=C(COc1ccc(Cl)c(F)c1)NC12CC(NC(=O)C3CNc4cc(Cl)ccc4O3)(C1)C2 (stereo not drawn) [Compound 113, 6-chloro-N-{3-[2-(4-chloro-3-fluorophenoxy)acetamido]bicyclo[1.1.1]pentan-1-yl}-3,4-dihydro-2H-1,4-benzoxazine-2-carboxamide]	< 10
O=C(COc1ccc(Cl)c(F)c1)NC12CC(NC(=O)C3CN(C(=O)c4ccc(S(=O)(=O)F)cc4)c4cc(Cl)ccc4O3)(C1)C2 (stereo not drawn) [Compound 147, 4-[6-chloro-2-({3-[2-(4-chloro-3-fluorophenoxy)acetamido]bicyclo[1.1.1]pentan-1-yl}carbamoyl)-2,3-dihydro-4H-1,4-benzoxazine-4-carbonyl]benzene-1-sulfonyl fluoride]	500 to 2000
CC(C)(C)OC(=O)CN1C[C@@H](C(=O)NC23CCC(NC(=O)COc4ccc(Cl)c(F)c4)(CC2)[C@@H](O)C3)Oc2ccc(Cl)cc21 [Compound 184, tert-butyl [(2S)-6-chloro-2-({(3S)-4-[2-(4-chloro-3-fluorophenoxy)acetamido]-3-hydroxybicyclo[2.2.2]octan-1-yl}carbamoyl)-2,3-dihydro-4H-1,4-benzoxazin-4-yl]acetate]	250 to 500
